“Also recorded” adds a separate entry of the source.
Legend:
C57B16 mice [1] = experiment: Water maze spatial learning; format: in vivo; details: i.p. once daily prior to testing, FIG. 6
Method: The Morris water maze (MWM) is a test of spatial learning for rodents that relies on distal cues to navigate from start locations around the perimeter of an open swimming arena to locate a submerged escape platform. Spatial learning is assessed across repeated trials and reference memory is determined by preference for the platform area when the platform is absent.
The test apparatus consists of a large circular pool (1 m diameter, 80 cm high, temperature 26° C.) with a platform (11 cm diameter) submerged 1.5 cm below the surface. Both the pool and the platform were constructed of black polyvinyl plastic, which offered no intra-maze cues. The experimental room contained several extra-maze visual cues. During training the platform was hidden in the same quadrant 30 cm away from the edge of the maze. There were five trials, each of them beginning with the rat facing the wall of the maze in one of three different locations. The time taken for the rat to find the platform within a 90s period was recorded. Probe trials where the platform was removed from the maze and the time the animal spent in the target quadrant were also performed. […]
Finally, drugs inducing neurobehavioural profile are evaluated in the water maze spatial learning paradigm, a robust task of information acquisition and consolidation—a measure of cognitive action

C57B16 mice [2] = experiment: Neurobehavioural screening (modified SHIRPA protocol), neophobia; format: in vivo; details: chronic administration protocol, 1 dose/day prior to testing
Method: The Experimental protocol employed in the behavioural evaluation of Meparfynol is outlined in FIG. 7. Two separate cohorts of C57B16 mice were employed. Cohort 1 was used to evaluate the drug effect on prepulse inhibition, open-field and novel object recognition. Cohort 2 was used to evaluate drug effects on spatial learning. The behavioural tests were administered in sequence as per day number indicated in the bar. The drug was administered by the intraperitoneal route and on the day of training the drug was administered after the behavioural analysis. Meparfynol/UCD-1216 was administered at doses of 20 and 50 mg/kg. The compounds were administered once daily, via the intraperitoneal route, for 7 days prior to testing and the animals were drug-free at time of training.
A modified SHIRPA protocol was adopted in order to provide an in vivo drug profile. The SHIRPA protocol is used in both academic and industrial environments for an initial behavioural characterisation of potential psychopharmaceuticals. The first behavioural tier analysis of our modified screen comprised open-field (FIG. 3), novel object recognition (NOR; FIG. 4), and pre-pulse inhibition (PPI; FIGS. 5A and 5B) paradigms. These psycho-pharmacological tests are described in more detail below: […]

rats reared in isolation = experiment: Pre-pulse inhibition (PPI) of the startle response in rats reared in isolation; format: in vivo; details: 20 mg/kg, p<0.05, two-way ANOVA, FIG. 5B
Excerpt: This reduction or inhibition of startle is not observed in the isolated animals.
One of the most robust, non-invasive rodent models used for studies relating to schizophrenia is isolation rearing of rats (Weiss and Feldon, 2001; Fone and Porkess, 2008). […] PPI is used as an operational measure of sensorimotor gating and is known to be defective in schizophrenics (Swerdlow et al., 1994; Ludewig et al., 2002). […] Reduction or inhibition of startle is not observed in the isolated animals control.

C57B16 mice [3] = experiment: Pre-pulse inhibition (PPI) of the startle response in mice; format: in vivo; details: 20 mg/kg i.p., FIG. 5A
Excerpt: Prepulse inhibition is a procedure whereby a preceding stimulus attenuates the startle response. The reduced ability to filter out irrelevant auditory stimulation is a characteristic which is thought to contribute to certain manifestations of conditions including inattention, distractibility, and cognitive deficits. The test is quite useful for evaluating transgenic models of schizophrenia as well as to screen potential antipsychotic drugs.
An example of one way of testing for PPI: In the prepulse inhibition (PPI) procedure, the rodent is placed in a small chamber and exposed to a brief pulse of noise. […]
The main three parts of the procedure are prepulse, startle stimulus, and startle reflex. […] Startle response is measured in rodents using the so-called automated “startle chambers” or “stabilimeter chambers”, with detectors recording whole-body reaction. In humans, the movements of oculomotor muscles (“eye-blink reflex” or “eye-blink response” assessed using electromyographic recording of orbicularis oculi muscle and by oculography) could be used as a measure. […]
Mepfarynol was administered by the intraperitoneal route at the doses indicated and as per details outlined above. Values were analysed using a two way ANOVA and Student t-test and those with a p value<0.05 were accepted as significant and where appropriate are indicated with an asterisk.

C57B16 mice [4] = experiment: Open field test; format: in vivo; details: 20 and 50 mg/kg i.p. once daily for 7 days prior to testing, FIG. 3
Excerpt: The Open Field test is designed to measure behavioural responses such as locomotor activity, hyperactivity, and exploratory behaviors. Open Field is also used as a measure of anxiety. Rats and mice tend to avoid brightly illuminated, novel, open spaces, so the open field environment acts as an anxiogenic stimulus and allows for measurement of anxiety-induced locomotor activity and exploratory behaviours. Open field testing is a one trial test with little or no impact on the animal's subsequent behaviour. The apparatus for the Open Field test was a square (100 cm by 100 cm) made of white Perspex. Each rat is placed in a corner of the field and its behaviour recorded for five minutes. All activity is recorded by a video camera mounted above the open field and scored in real-time (or digitized and scored later) by the advanced motion-recognition software package Ethovision by Noldus, that detects and analyzes the movements of the rat or mouse. The total distance, average speed, rearing/elongation behaviour, and time spent in various parts of the field (such as, for example, the border areas vs. the open, middle area) is measured and analysed. Testing is carried out in a temperature, noise and light controlled room.
The Experimental protocol employed in the behavioural evaluation of Meparfynol is outlined in FIG. 7. Two separate cohorts of C57B16 mice were employed. […]

C57B16 mice [5] = experiment: Novel object recognition (NOR) test; format: in vivo; details: FIG. 4
Excerpt: This test is useful for evaluating the role of experimental manipulations on cognition. The recognition test is based on the natural tendency of rodents to investigate a novel object instead of a familiar one. The choice to explore the novel object reflects the use of learning and (recognition) memory processes. Novel Object Recognition (NOR) is based on the premise that rodents will explore a novel object more than a familiar one, but only if they remember the familiar one. This tendency is actually shared by humans, as looking time is often used to make inferences about an infant's memory in the absence of explicit, verbal recognition.
Before training the animals with objects, they are first allowed to acclimatise to the testing environment, a white Perspex box (30 cm by 20 cm) equipped with an overhead camera. After an acclimation session, the animals are ready for the training stage. […]
The amount of time that the rodents spends exploring each object can be calculated by hand or by using a computer program receiving input from the overhead camera. […]

[6] = system: receptors (cell lines that express only one type of receptor); experiment: Novascreen receptor affinity screen (competition with a reference ligand); format: binding; details: 1 μM Meparfynol, all top ranking receptors; FIG. 8C
Method: Analysis of receptor affinities was performed by Novascreen™ (www.novascreen.com) and those displacing >20% of the natural ligand are indicated by the filled boxes. Blood levels of Mepfarynol were determined by GC mass spectroscopy in separate samples taken from a cannulated jugular at increasing time intervals following a single intraperitoneal injection of the drug ([…]).
The higher the target inhibition value, the greater the affinity Meparfynol has for this particular receptor as it displaces a greater proportion of the reference ligand. This assay is an automated high throughput assay performed on cell lines that express only one type of receptor and was carried out by Novascreen (www.novascreen.com).

[7] = in vivo; cited from earlier work
frontal cortex = details: after administration; Society for Neuroscience meeting November 2000; cited from earlier work

Q: Which “spatial learning in the water maze” value (C57B16 mice [1]) does the source give for `C#C[C@](C)(O)CC` (stereo in doubt) [Meparfynol, 3-methylpent-1-yn-3-ol] here?
A: enhanced spatial learning; also recorded: significant pro-cognitive actions

Q: And the “neophobia (fear of anything new)” value (C57B16 mice [2])?
A: reduced neophobia

Q: And the “pre-pulse inhibition of startle response” value (rats reared in isolation)?
A: significantly enhances

Q: What about the “pre-pulse inhibition of startle response” value (C57B16 mice [3]) of the same compound?
A: significantly enhances

Q: What about the “effect in the open-field paradigm (locomotor activity)” value (C57B16 mice [4]) of the same compound?
A: little effect

Q: And the “working memory as measured by the NOR test (exploratory bias for the novel object)” value (C57B16 mice [5]; 20 and 50 mg/kg i.p. once daily for 7 days prior to testing)?
A: modest enhancement

Q: And the “novel object exploratory time” value (C57B16 mice [5]; compared to the vehicle-treated controls)?
A: significantly reduced

Q: And the “percent target inhibition (reference ligand prevented from binding)” value [6]?
A: less than 20%

Q: With `CC12CC3CC(C)(C1)CC(N)(C3)C2` [Memantine, 1-amino-3,5-dimethyl adamantane] as the compound, how does the “administered dose excreted unchanged in urine” value [7] read?
A: 57-82%

Q: Which “glutamate and aspartate levels in the frontal cortex” value (frontal cortex) does the source give for `COc1ccc(NS(=O)(=O)c2sc3ccc(Cl)cc3c2C)cc1N1CCNCC1` [SB-271046] here?
A: significant increase

Q: What about the “noradrenaline, dopamine or 5-HT levels” value (frontal cortex) of the same compound?
A: without affecting
